# In patent US20240368174A1, “Antiviral Heterocyclic Compounds” (Enanta Pharmaceuticals, Inc., priority 2023, published 2024):
# Tested on: HMPV clinical isolate A2 strain TN 94-49
# Assay: HMPV antiviral assay, Method 2 (LLC-MK2 cells with CP-100-356, ATP-Lite)
# Format: cell-based
# Conditions: human metapneumovirus, 168 h; hMPV A2 TN/94-49, LLC-MK2 cells with 4 μM CP-100-356, 7 days, ATP-Lite
# Procedure, shortened: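 LLC-MK2 rhesus kidney cells (5,000/well) infected in suspension with HMPV A2 TN 94-49 at MOI 0.16, in serum-free medium with final 2 μg/mL TPCK-trypsin and 2 μM CP-100-356. Compounds tested in duplicate from 200 nM, 2.5-fold, 10 points; 7 days at 37 °C. Cell health by ATP-Lite luminescence; EC50 by four-parameter fit.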
row,EC50 [nM],Structure (SMILES)
1,< 200,COc1cc(-c2nc([C@@](O)(CNC(=O)c3cc(OC)c4nn(C5(F)CC5)cc4c3)c3ccccc3)cc3c2OC[C@]3(C)C(N)=O)c(F)cn1 [Example 640]
2,> 200,COc1cc(C(=O)NC[C@](O)(c2cc3c(c(-n4ncc5c4CCCC5)n2)OC[C@]3(C)C(N)=O)C2CC2)cc2cn(C(F)F)nc12 [Example 641]
3,> 200,COc1cc(C(=O)NC[C@](O)(c2cc3c(c(-n4ncc5c4CCCC5)n2)OC[C@]3(C)C(N)=O)C2CC2)cc2cn(C3CC3)nc12 [Example 642]
4,> 200,COc1cc(C(=O)NC[C@](O)(c2cc3c(c(-n4ncc5c4CCCC5)n2)OC[C@]3(C)C(N)=O)C2CC2)cc2cn(C3(F)CC3)nc12 [Example 643]
5,> 200,COc1cc(C(=O)NC[C@](O)(c2cc3c(c(-n4ncc5c4CCCC5)n2)OC[C@]3(C)C(N)=O)C2CC2)cc2oc(C3CC3)nc12 [Example 644]
6,< 200,COc1nccc(-c2nc([C@@](O)(CNC(=O)c3cc(OC)c4nc(C5CC5)oc4c3)C3(F)CC3)cc3c2OC[C@]3(C)C(N)=O)c1Cl [Example 645]
7,< 200,COc1cc(C(=O)NC[C@@](O)(c2ccc(F)cc2)c2cc3c(c(-c4ccnc(C)c4Cl)n2)OC[C@]3(C)C(N)=O)cc2cn(C3CC3)nc12 [Example 646]
8,< 200,COc1cc(C(=O)NC[C@@](O)(c2ccc(F)cc2)c2cc3c(c(-c4ccnc(C)c4Cl)n2)OC[C@]3(C)C(N)=O)cc2cn(C3(F)CC3)nc12 [Example 647]
9,> 200,COc1cc(C(=O)NC[C@@](O)(c2ccc(F)cc2)c2cc3c(c(-c4ccnc(C)c4Cl)n2)OC[C@]3(C)C(N)=O)cc2cn(C(F)F)nc12 [Example 648]
10,< 200,COc1cc(C(=O)NC[C@@](O)(c2ccc(F)cc2)c2cc3c(c(-c4ccnc(C)c4Cl)n2)OC[C@]3(C)C(N)=O)cc2oc(C3CC3)nc12 [Example 649]
11,< 200,C[C@]1(C(N)=O)COc2c1cc([C@@](O)(CNC(=O)c1cc(OC3CC3)c3nn(C4CC4)cc3c1)C1CC1)nc2-n1ncc2c(F)cccc21 [Example 650]
12,< 200,C[C@]1(C(N)=O)COc2c1cc([C@@](O)(CNC(=O)c1cc(OC3CC3)c3nn(C4(F)CC4)cc3c1)C1CC1)nc2-n1ncc2c(F)cccc21 [Example 651]
13,< 200,C[C@]1(C(N)=O)COc2c1cc([C@@](O)(CNC(=O)c1cc(OC3CC3)c3nn(C(F)F)cc3c1)C1CC1)nc2-n1ncc2c(F)cccc21 [Example 652]
14,< 200,COc1nccc(-c2nc([C@@](O)(CNC(=O)c3cc(OC)c4nn(C5CC5)cc4c3)C3(F)CC3)cc3c2OC[C@]3(C)C(N)=O)c1Cl [Example 653]
15,< 200,COc1nccc(-c2nc([C@@](O)(CNC(=O)c3cc(OC)c4nn(C5(F)CC5)cc4c3)C3(F)CC3)cc3c2OC[C@]3(C)C(N)=O)c1Cl [Example 654]
16,< 200,COc1nccc(-c2nc([C@@](O)(CNC(=O)c3cc(OC)c4nn(C(F)F)cc4c3)C3(F)CC3)cc3c2OC[C@]3(C)C(N)=O)c1Cl [Example 655]
17,< 200,COc1nccc(-c2nc([C@@](O)(CNC(=O)c3cc(OC)n4nc(C5CC5)cc4c3)C3(F)CC3)cc3c2OC[C@]3(C)C(N)=O)c1Cl [Example 656]
18,< 200,COc1nccc(-c2nc([C@@](O)(CNC(=O)c3cc(OC4CC4)c4nn(C5CC5)cc4c3)C3(F)CC3)cc3c2OC[C@]3(C)C(N)=O)c1Cl [Example 657]
19,< 200,COc1nccc(-c2nc([C@@](O)(CNC(=O)c3cc(OC4CC4)c4nn(C5(F)CC5)cc4c3)C3(F)CC3)cc3c2OC[C@]3(C)C(N)=O)c1Cl [Example 658]
20,< 200,COc1nccc(-c2nc([C@@](O)(CNC(=O)c3cc(OC)c4nc(C)c(Cl)cc4c3)c3cccc(F)c3)cc3c2OC[C@]3(C)C(N)=O)c1Cl [Example 659]
21,< 200,C[C@]1(C(N)=O)COc2c1cc([C@@](O)(CNC(=O)c1cc(Cl)c3nn(C4CC4)cc3c1)C1CC1)nc2-c1cc(C(F)(F)F)ncc1F [Example 660]
22,< 200,COc1cc(C(=O)NC[C@@](O)(c2ccccc2)c2cc3c(c(-c4ccnc(F)c4Cl)n2)OC[C@]3(C)C(N)=O)cc2cn(C(F)F)nc12 [Example 663]
